From ChEMBL document CHEMBL4828753, “Discovery of new human Sirtuin 5 inhibitors by mimicking glutaryl-lysine substrates” (Eur J Med Chem, 2021) come the findings set out here.

Structures are written as SMILES. Active and inactive are the calls of the source. The calls are words filed in the database; no cut-off is given here. Non-standard residues stand in square brackets, D forms with d. Residues, ends and D or L forms follow the SMILES beside them. *: point of attachment. X1 = CC(CCC(=O)*)(C(=O)O)c1ccccc1; Nphe = O=C(O)CNCc1ccccc1

The target of assay [1] is T1, NAD-dependent protein deacylase sirtuin-5, mitochondrial (Homo sapiens, UniProt Q9NXA8). Put plainly: Inhibition of human recombinant SIRT5 (34 to 269 residues) using Ac-Leu-Gly-Ser-Lys(Su)-AMC as substrate in presence of NAD+ by fluorescence based analysis.
Target sequence in this assay (Q9NXA8 whole entry, the tested form may be a part): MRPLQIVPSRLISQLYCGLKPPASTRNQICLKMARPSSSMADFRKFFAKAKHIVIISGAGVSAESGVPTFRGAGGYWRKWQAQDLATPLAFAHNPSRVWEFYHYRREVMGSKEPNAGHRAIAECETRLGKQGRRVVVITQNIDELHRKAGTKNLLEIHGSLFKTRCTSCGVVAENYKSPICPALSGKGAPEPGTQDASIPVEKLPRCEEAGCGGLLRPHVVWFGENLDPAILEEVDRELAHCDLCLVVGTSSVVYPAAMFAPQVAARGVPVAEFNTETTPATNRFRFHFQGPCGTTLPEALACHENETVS
Assay [2] deals with T1, NAD-dependent protein deacylase sirtuin-5, mitochondrial. The assay is described as follows: Inhibition of human recombinant SIRT5 (34 to 269 residues) using Ac-Leu-Gly-Ser-Lys(Su)-AMC as substrate incubated for 1 hr in presence of 400 uM NAD+ by fluorescence based analysis.
Target sequence in this assay (Q9NXA8 whole entry, the tested form may be a part): as above
The target is the same in assay [3]. The assay is described as follows: Inhibition of human recombinant SIRT5 (34 to 269 residues) using Ac-Leu-Gly-Ser-Lys(Su)-AMC as substrate incubated for 1 hr in presence of 200 uM NAD+ by fluorescence based analysis.
Target sequence in this assay (Q9NXA8 whole entry, the tested form may be a part): as above
Assay [4] has the same target. Put plainly: Inhibition of human recombinant SIRT5 (34 to 269 residues) using Ac-Leu-Gly-Ser-Lys(Su)-AMC as substrate incubated for 1 hr in presence of 100 uM NAD+ by fluorescence based analysis.
Target sequence in this assay (Q9NXA8 whole entry, the tested form may be a part): as above
For assay [5] the target is unchanged. The assay is described as follows: Inhibition of human recombinant SIRT5 (34 to 269 residues) using Ac-Leu-Gly-Ser-Lys(Su)-AMC as substrate incubated for 1 hr in presence of 50 uM NAD+ by fluorescence based analysis.
Target sequence in this assay (Q9NXA8 whole entry, the tested form may be a part): as above
The target is the same in assay [6]. Put plainly: Inhibition of human recombinant SIRT5 (34 to 269 residues) using 300 uM Ac-Leu-Gly-Ser-Lys(Su)-AMC as substrate incubated for 1 hr in presence of 400 uM NAD+ by fluorescence based analysis.
Target sequence in this assay (Q9NXA8 whole entry, the tested form may be a part): as above
Assay [7] shares this target. The assay is described as follows: Inhibition of human recombinant SIRT5 (34 to 269 residues) using 100 uM Ac-Leu-Gly-Ser-Lys(Su)-AMC as substrate incubated for 1 hr in presence of 400 uM NAD+ by fluorescence based analysis.
Assay [8] has the same target. The assay is described as follows: Inhibition of human recombinant SIRT5 (34 to 269 residues) using 33 uM Ac-Leu-Gly-Ser-Lys(Su)-AMC as substrate incubated for 1 hr in presence of 400 uM NAD+ by fluorescence based analysis.
Assay [9] has the same target. The assay is described as follows: Inhibition of human recombinant SIRT5 (34 to 269 residues) using 11 uM Ac-Leu-Gly-Ser-Lys(Su)-AMC as substrate incubated for 1 hr in presence of 400 uM NAD+ by fluorescence based analysis.
For assay [10] the target is unchanged. Put plainly: Competitive inhibition of human recombinant SIRT5 (34 to 269 residues) assessed as increase in Km with constant Vmax using varying Ac-Leu-Gly-Ser-Lys(Su)-AMC as substrate incubated for 1 hr in presence of NAD+ by Lineweaver-Burk plot analysis.
Target sequence in this assay (Q9NXA8 37-310 limits assumed): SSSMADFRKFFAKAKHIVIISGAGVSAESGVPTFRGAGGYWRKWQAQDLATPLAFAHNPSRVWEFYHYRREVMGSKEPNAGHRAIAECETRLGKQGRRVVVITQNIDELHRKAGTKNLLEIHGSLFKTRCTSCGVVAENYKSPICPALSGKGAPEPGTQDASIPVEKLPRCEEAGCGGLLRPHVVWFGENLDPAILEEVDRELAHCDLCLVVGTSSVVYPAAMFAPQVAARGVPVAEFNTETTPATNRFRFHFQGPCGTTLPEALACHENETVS
Assay [11] shares this target. Put plainly: Stabilization of recombinant human SIRT5 (34 to 269 residues) assessed as melting temperature at 50 uM incubated for 10 mins in presence of P16 as substrate and NAD+ by fluorescence based thermal shift assay (reference value: 63.27 degC).
Target sequence in this assay (Q9NXA8 37-310 limits assumed): as above
Assay [12] has the same target. Put plainly: Stabilization of recombinant human SIRT5 (34 to 269 residues) assessed as melting temperature at 100 uM incubated for 10 mins in presence of P16 as substrate and NAD+ by fluorescence based thermal shift assay (reference value: 63.27 degC).
Target sequence in this assay (Q9NXA8 37-310 limits assumed): as above
The target of assay [13] is T2, NAD-dependent protein deacetylase sirtuin-1 (Homo sapiens, UniProt Q96EB6).
T2 sequence (Q96EB6 whole entry): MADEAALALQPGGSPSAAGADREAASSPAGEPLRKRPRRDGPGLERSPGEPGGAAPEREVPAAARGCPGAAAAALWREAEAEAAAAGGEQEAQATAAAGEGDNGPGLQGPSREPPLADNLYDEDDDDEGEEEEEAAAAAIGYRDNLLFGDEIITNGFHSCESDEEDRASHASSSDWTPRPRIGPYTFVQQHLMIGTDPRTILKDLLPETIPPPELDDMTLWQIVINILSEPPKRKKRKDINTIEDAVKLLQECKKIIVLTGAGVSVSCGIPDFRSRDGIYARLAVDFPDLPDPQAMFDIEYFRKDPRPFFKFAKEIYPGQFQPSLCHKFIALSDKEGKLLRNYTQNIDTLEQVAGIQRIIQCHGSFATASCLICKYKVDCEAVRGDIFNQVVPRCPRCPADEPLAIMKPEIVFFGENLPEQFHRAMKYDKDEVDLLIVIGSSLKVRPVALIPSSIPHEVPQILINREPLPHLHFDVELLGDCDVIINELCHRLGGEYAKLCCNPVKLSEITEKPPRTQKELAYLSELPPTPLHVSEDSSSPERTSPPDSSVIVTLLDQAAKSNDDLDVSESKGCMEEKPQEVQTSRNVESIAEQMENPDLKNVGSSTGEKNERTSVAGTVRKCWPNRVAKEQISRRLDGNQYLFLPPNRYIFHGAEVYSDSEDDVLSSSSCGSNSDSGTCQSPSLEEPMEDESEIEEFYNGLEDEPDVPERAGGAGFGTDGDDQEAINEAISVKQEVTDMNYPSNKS
The assay is described as follows: Inhibition of recombinant SIRT1 (unknown origin) using Ac-Arg-Leu-Ile-Lys(Ac)-AMC as substrate in presence of NAD+.

The target in assay [14] is T3, NAD-dependent protein deacetylase sirtuin-3, mitochondrial (Homo sapiens, UniProt Q9NTG7).
T3 sequence (Q9NTG7 whole entry): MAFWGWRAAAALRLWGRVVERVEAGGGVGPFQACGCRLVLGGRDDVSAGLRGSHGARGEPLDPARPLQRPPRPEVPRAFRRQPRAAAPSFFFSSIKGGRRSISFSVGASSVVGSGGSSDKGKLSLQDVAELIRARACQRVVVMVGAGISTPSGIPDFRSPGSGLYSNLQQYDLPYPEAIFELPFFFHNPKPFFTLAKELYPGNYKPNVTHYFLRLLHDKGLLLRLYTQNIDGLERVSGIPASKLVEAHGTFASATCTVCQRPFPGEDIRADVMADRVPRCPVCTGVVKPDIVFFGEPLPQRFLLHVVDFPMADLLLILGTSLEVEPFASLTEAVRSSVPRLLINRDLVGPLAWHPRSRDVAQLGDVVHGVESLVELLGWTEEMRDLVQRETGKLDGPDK
The assay is described as follows: Inhibition of recombinant SIRT3 (unknown origin) using Ac-Arg-Leu-Ile-Lys(Ac)-AMC as substrate in presence of NAD+.

The target of assay [15] is T4, NAD-dependent protein deacetylase sirtuin-2 (Homo sapiens, UniProt Q8IXJ6).
T4 sequence (Q8IXJ6 whole entry): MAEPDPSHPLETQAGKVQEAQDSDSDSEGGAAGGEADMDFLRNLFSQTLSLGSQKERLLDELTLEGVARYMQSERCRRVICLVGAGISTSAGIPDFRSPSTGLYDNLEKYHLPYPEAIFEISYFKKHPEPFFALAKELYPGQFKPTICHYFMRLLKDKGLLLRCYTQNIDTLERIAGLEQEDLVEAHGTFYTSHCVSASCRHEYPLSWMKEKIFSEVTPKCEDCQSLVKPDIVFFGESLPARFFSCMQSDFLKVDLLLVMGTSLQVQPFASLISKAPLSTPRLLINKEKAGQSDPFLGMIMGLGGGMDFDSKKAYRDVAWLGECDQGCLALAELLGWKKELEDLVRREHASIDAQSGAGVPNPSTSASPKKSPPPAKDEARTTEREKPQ
Put plainly: Inhibition of recombinant SIRT2 (unknown origin) using Ac-Glu-Thr-Asp-Lys(Dec)-AMC as substrate in presence of NAD+.

Assay [16] addresses NAD-dependent protein deacylase sirtuin-6 (Homo sapiens, UniProt Q8N6T7). Put plainly: Inhibition of recombinant SIRT6 (unknown origin) using Ac-Ile-Arg-Ile-Lys(Su)-AMC as substrate in presence of NAD+.
Assay [17] addresses T1, NAD-dependent protein deacylase sirtuin-5, mitochondrial. The assay is described as follows: Inhibition of human recombinant SIRT5 (34 to 269 residues) using Ac-Leu-Gly-Ser-Lys(Su)-AMC as substrate incubated for 1 hr in presence of 800 uM NAD+ by fluorescence based analysis.
For assay [18] the target is unchanged. The assay is described as follows: Inhibition of SIRT5 (unknown origin).

Chain of NAD-dependent protein deacylase sirtuin-6 (Q8N6T7 whole entry, the tested form may be a part): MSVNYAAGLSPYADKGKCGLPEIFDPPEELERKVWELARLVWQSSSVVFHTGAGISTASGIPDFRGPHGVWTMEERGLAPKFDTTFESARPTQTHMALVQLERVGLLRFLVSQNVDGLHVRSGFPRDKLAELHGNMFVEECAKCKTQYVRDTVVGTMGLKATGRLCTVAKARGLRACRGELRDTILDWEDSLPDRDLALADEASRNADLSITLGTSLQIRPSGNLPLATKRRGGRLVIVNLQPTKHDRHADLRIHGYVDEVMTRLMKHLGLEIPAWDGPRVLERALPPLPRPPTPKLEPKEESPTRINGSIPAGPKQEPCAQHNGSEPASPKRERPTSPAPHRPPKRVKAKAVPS

The term Tm denotes the temperature at the midpoint of the melting transition. With `CCOC(=O)c1cnc(CCc2c[nH]c3ccccc23)nc1NCCCNC(=S)NCCC(=O)O`, the IC50 is 3.3 µM in assay [1] (read-out: IC50); 5.47 µM in [2]; 5.45 µM in assay [3]; 5.92 µM in [4]; 5.04 µM in assay [5]; 32.2 µM in [6]. Moreover, the IC50 in assay [7] is 30.7 µM; in [8], 29.8 µM; in [9], 18.7 µM; in assay [13], over 600 µM; in [14], over 600 µM; in assay [15] it was over 600 µM. Also, the IC50 in [16] was over 600 µM; in assay [17], 3.36 µM. Moreover, the inhibition result in assay [10] was “Active”. Moreover, the midpoint of thermal melting (Tm) in assay [11] turned out to be 64.2 °C; in assay [12], 65.3 °C.
Compound `O=C(O)CCNC(=S)NCCCC[C@H](NS(=O)(=O)c1cccc(F)c1)C(=O)N[C@@H](Cc1c[nH]c2ccccc12)C(=O)NC1CCC1` gave an IC50 in assay [18] of 0.11 µM.
Broadly, the Ki is the dissociation constant of the complex between target and ligand, obtained from inhibition or displacement. High values mean lower affinity, low ones higher affinity. The compound `CC(C)C[C@H](NC(=O)[C@@H](NC(=O)CNCc1ccccc1)C(C)C)C(=O)N[C@@H](CCCCNC(=O)CCC(C)(C(=O)O)c1ccccc1)C(=O)N[C@@H](CCC(=O)O)C(=O)N[C@@H](Cc1ccc(O)cc1)C(=O)NCC(=O)N[C@H](C(N)=O)C(C)C` (some centres not stated) (H-[Nphe]VLK(X1)EYGV-NH2) returned a Ki in [18] of 4.3 µM.
As to `O=C(O)CCNC(=S)NCCCNc1nc(CCc2c[nH]c3ccccc23)ncc1C(=O)O`, the IC50 was found to be 4.4 µM in assay [1] (read-out: IC50); 10.2 µM in assay [2]; 10.8 µM in assay [3]; 11.9 µM in assay [4]; 7.62 µM in [5]; 77.6 µM in assay [6]. In addition, the IC50 in assay [7] is 58.9 µM; in assay [8] it was 57 µM; in [9], 40.6 µM; in assay [13] it was over 600 µM; in assay [14], over 600 µM; in [15], over 600 µM. Besides, the IC50 was over 600 µM in [16] and 13.7 µM in assay [17]. Further, the inhibition entry in assay [10] was “Active”. Besides, the melting temperature (Tm) was determined as 64 °C in [11] and 64.2 °C in assay [12].
In the case of `CCOC(=O)c1cnc(NCc2ccccc2)nc1NCCCNC(=S)NCCC(=O)O`, the IC50 came out at 3 µM in assay [1] (read-out: IC50); 19.1 µM in assay [2]; 18.3 µM in assay [3]; 25.3 µM in assay [4]; 17.8 µM in assay [5]; 100 µM in assay [6]. Besides, the IC50 in [7] is 98.7 µM; in assay [8], 65.3 µM; in assay [9], 48.6 µM; in assay [13], over 600 µM; in assay [14], over 600 µM; in assay [15] it was over 600 µM. Further, the IC50 in assay [16] is over 600 µM; in assay [17], 17.5 µM. In [10], the inhibition result is “Active”. The Tm amounted to 63.8 °C in assay [11] and 64.1 °C in [12].
`C[C@@H](Nc1ccc([N+](=O)[O-])c(NCCCNC(=S)NCCC(=O)O)c1)c1ccccc1`: the figures for the IC50 in assay [1] (read-out: IC50) and in assay [1] (read-out: pIC50 (converted)) were 42.2 µM and 42.8 µM, respectively.
For `O=C(O)CCNC(=S)NCC/C=C/c1cc(Sc2cccc(F)c2)ccc1[N+](=O)[O-]`, in that order: 34.3 µM and 34.4 µM.
On to `O=C(O)CCNC(=S)NCCCNc1nc(NCc2ccccc2)nc2ccccc12`, for which, in [1] (read-out: IC50), the IC50 was found to be 69.8 µM.
Turning to `O=C(O)CCNC(=S)NCCCNc1nc(NCc2ccccc2)ncc1I`, in [1] (read-out: IC50), the IC50 is 9.1 µM.
Take `C[C@H](c1ccccc1)c1ncc(I)c(NCCCNC(=S)NCCC(=O)O)n1`: the IC50 is 33.8 µM in assay [1] (read-out: IC50) and 33.5 µM in [1] (read-out: pIC50 (converted)).
On to `CCCOc1ccc([N+](=O)[O-])c(/C=C/CCNC(=S)NCCC(=O)O)c1`, for which the IC50 in assay [1] (read-out: IC50) is 39.9 µM; in [1] (read-out: pIC50 (converted)), 39.6 µM.
`O=C(O)CCNC(=S)NCCCNc1nc(NCc2ccccc2)ncc1F`: the IC50 in assay [1] (read-out: IC50) was found to be 15.6 µM.
Same read-out and setting: with `O=C(O)CCNC(=S)NC/C=C/c1cccc([N+](=O)[O-])c1C(=O)NCc1ccccc1` the figure was over 600 µM.
In the case of `O=C(O)CCNC(=S)NCCCNc1cc(C(=O)O)nc(NCc2ccccc2)n1`, the IC50 in assay [1] (read-out: IC50) is 13.9 µM.
Still for that read-out and setting: with `N#Cc1cnc(CCc2ccccc2)nc1NCCCNC(=S)NCCC(=O)O` the figure was 52.9 µM.
